Measurements published in ChEMBL document CHEMBL5236661, “A new selective inhibitor for IMP-1 metallo-β-lactamase, 3Z,5E-octa-3,5-diene-1,3,4-tricarboxylic acid-3,4-anhydride” (Bioorg Med Chem, 2023).
≈ marks a conversion by molar mass, not a printed value. Calls of active or inactive are those of the source. No cut-off for these calls is given here.

Tests used:
Escherichia coli [1] = assay: Antibacterial activity against Escherichia coli KB366 expressing IMP-1 assessed as inhibition of bacterial growth at 100 ug in presence of meropenem incubated overnight by paper disk method; assay type: functional; settings: read-out: IZ
Pseudomonas aeruginosa [2] = assay: Antibacterial activity against Pseudomonas aeruginosa KB367 expressing IMP-1 assessed as inhibition of bacterial growth at 3 ug in presence of meropenem incubated overnight by paper disk method; assay type: functional
Escherichia coli [3] = assay: Antibacterial activity against Escherichia coli KB366 expressing IMP-1 assessed as inhibition of bacterial growth at 30 ug in absence of meropenem incubated overnight by paper disk method; assay type: functional, organism-based; settings: dose 30.0 µg
[4] = Inhibition of bacterial Metallo-beta-lactamase IMP-1 using nitrocefin as substrate pre-incubated for 15 mins followed by substrate addition by microplate reader; set-up: species or system Bacteria
Pseudomonas aeruginosa [5] = assay: Antibacterial activity against Pseudomonas aeruginosa KB367 expressing IMP-1 assessed as inhibition of bacterial growth at 10 ug in presence of meropenem incubated overnight by paper disk method; assay type: functional
Pseudomonas aeruginosa [6] = assay: Antibacterial activity against Pseudomonas aeruginosa KB367 expressing IMP-1 assessed as inhibition of bacterial growth at 100 ug in presence of meropenem incubated overnight by paper disk method; assay type: functional
Escherichia coli [7] = assay: Antibacterial activity against Escherichia coli KB366 expressing IMP-1 assessed as inhibition of bacterial growth at 1 ug in presence of meropenem incubated overnight by paper disk method; assay type: functional; settings: read-out: IZ
Pseudomonas aeruginosa [8] = assay: Antibacterial activity against Pseudomonas aeruginosa KB367 expressing IMP-1 assessed as inhibition of bacterial growth at 30 ug in absence of meropenem incubated overnight by paper disk method; assay type: functional, organism-based; settings: dose 30.0 µg
Escherichia coli [9] = assay: Antibacterial activity against Escherichia coli KB366 expressing IMP-1 assessed as inhibition of bacterial growth at 1 ug in absence of meropenem incubated overnight by paper disk method; assay type: functional, organism-based; settings: dose 1.0 µg
Escherichia coli [10] = assay: Antibacterial activity against Escherichia coli KB366 expressing IMP-1 assessed as inhibition of bacterial growth at 0.3 ug in presence of meropenem incubated overnight by paper disk method; assay type: functional
Pseudomonas aeruginosa [11] = assay: Antibacterial activity against Pseudomonas aeruginosa KB367 expressing IMP-1 assessed as inhibition of bacterial growth at 10 ug in absence of meropenem incubated overnight by paper disk method; assay type: functional, organism-based; settings: dose 10.0 µg
Pseudomonas aeruginosa [12] = assay: Antibacterial activity against Pseudomonas aeruginosa KB367 expressing IMP-1 assessed as inhibition of bacterial growth at 100 ug in absence of meropenem incubated overnight by paper disk method; assay type: functional, organism-based; settings: dose 100.0 µg
Pseudomonas aeruginosa [13] = assay: Antibacterial activity against Pseudomonas aeruginosa KB367 expressing IMP-1 assessed as inhibition of bacterial growth at 30 ug in presence of meropenem incubated overnight by paper disk method; assay type: functional
Pseudomonas aeruginosa [14] = assay: Antibacterial activity against Pseudomonas aeruginosa KB367 expressing IMP-1 assessed as inhibition of bacterial growth at 0.3 ug in presence of meropenem incubated overnight by paper disk method; assay type: functional, organism-based; settings: dose 0.3 µg
Pseudomonas aeruginosa [15] = assay: Antibacterial activity against Pseudomonas aeruginosa KB367 expressing IMP-1 assessed as inhibition of bacterial growth at 0.3 ug in absence of meropenem incubated overnight by paper disk method; assay type: functional, organism-based; settings: dose 0.3 µg
Pseudomonas aeruginosa [16] = assay: Antibacterial activity against Pseudomonas aeruginosa KB367 expressing IMP-1 assessed as inhibition of bacterial growth at 1 ug in absence of meropenem incubated overnight by paper disk method; assay type: functional, organism-based; settings: dose 1.0 µg
Escherichia coli [17] = assay: Antibacterial activity against Escherichia coli KB366 expressing IMP-1 assessed as inhibition of bacterial growth at 3 ug in presence of meropenem incubated overnight by paper disk method; assay type: functional; settings: read-out: IZ
Escherichia coli [18] = assay: Antibacterial activity against Escherichia coli KB366 expressing IMP-1 assessed as inhibition of bacterial growth at 10 ug in presence of meropenem incubated overnight by paper disk method; assay type: functional; settings: read-out: IZ
Pseudomonas aeruginosa [19] = assay: Antibacterial activity against Pseudomonas aeruginosa KB367 expressing IMP-1 assessed as inhibition of bacterial growth at 1 ug in presence of meropenem incubated overnight by paper disk method; assay type: functional; settings: dose 1.0 µg
Escherichia coli [20] = assay: Antibacterial activity against Escherichia coli KB366 expressing IMP-1 assessed as inhibition of bacterial growth at 0.3 ug in absence of meropenem incubated overnight by paper disk method; assay type: functional, organism-based; settings: dose 0.3 µg
Pseudomonas aeruginosa [21] = assay: Antibacterial activity against Pseudomonas aeruginosa KB367 expressing IMP-1 assessed as inhibition of bacterial growth at 0.1 ug in absence of meropenem incubated overnight by paper disk method; assay type: functional, organism-based; settings: dose 0.1 µg
Escherichia coli [22] = assay: Antibacterial activity against Escherichia coli KB366 expressing IMP-1 assessed as inhibition of bacterial growth at 0.1 ug in absence of meropenem incubated overnight by paper disk method; assay type: functional, organism-based; settings: dose 0.1 µg
Escherichia coli [23] = assay: Antibacterial activity against Escherichia coli KB366 expressing IMP-1 assessed as inhibition of bacterial growth at 30 ug in presence of meropenem incubated overnight by paper disk method; assay type: functional; settings: read-out: IZ
Pseudomonas aeruginosa [24] = assay: Antibacterial activity against Pseudomonas aeruginosa KB367 expressing IMP-1 assessed as inhibition of bacterial growth at 3 ug in absence of meropenem incubated overnight by paper disk method; assay type: functional, organism-based; settings: dose 3.0 µg
Escherichia coli [25] = assay: Antibacterial activity against Escherichia coli KB366 expressing IMP-1 assessed as inhibition of bacterial growth at 100 ug in absence of meropenem incubated overnight by paper disk method; assay type: functional, organism-based; settings: dose 100.0 µg
Escherichia coli [26] = assay: Antibacterial activity against Escherichia coli KB366 expressing IMP-1 assessed as inhibition of bacterial growth at 3 ug in absence of meropenem incubated overnight by paper disk method; assay type: functional, organism-based; settings: dose 3.0 µg
Escherichia coli [27] = assay: Antibacterial activity against Escherichia coli KB366 expressing IMP-1 assessed as inhibition of bacterial growth at 10 ug in absence of meropenem incubated overnight by paper disk method; assay type: functional, organism-based; settings: dose 10.0 µg
Pseudomonas aeruginosa [28] = assay: Antibacterial activity against Pseudomonas aeruginosa KB367 expressing IMP-1 assessed as inhibition of bacterial growth at 0.1 ug in presence of meropenem incubated overnight by paper disk method; assay type: functional, organism-based; settings: dose 0.1 µg
Escherichia coli [29] = assay: Antibacterial activity against Escherichia coli KB366 expressing IMP-1 assessed as inhibition of bacterial growth at 0.1 ug in presence of meropenem incubated overnight by paper disk method; assay type: functional; settings: dose 0.1 µg

| IC50 [4] [µg/mL] | Compound | zone of inhibition at 100 µg/disc (Escherichia coli [1]) [mm] | inhibition zone (IZ) (Escherichia coli [3]) | zone of inhibition at 1 µg/disc (Escherichia coli [7]) [mm] | inhibition zone (IZ) (Pseudomonas aeruginosa [8]) | inhibition zone (IZ) (Escherichia coli [9]) | inhibition zone (IZ) (Pseudomonas aeruginosa [11]) | inhibition zone (IZ) (Pseudomonas aeruginosa [12]) | inhibition zone (IZ) (Pseudomonas aeruginosa [14]) | inhibition zone (IZ) (Pseudomonas aeruginosa [15]) | inhibition zone (IZ) (Pseudomonas aeruginosa [16]) | zone of inhibition at 3 µg/disc (Escherichia coli [17]) [mm] | zone of inhibition at 10 µg/disc (Escherichia coli [18]) [mm] | inhibition zone (IZ) (Pseudomonas aeruginosa [19]) | inhibition zone (IZ) (Escherichia coli [20]) | inhibition zone (IZ) (Pseudomonas aeruginosa [21]) | zone of inhibition at 30 µg/disc (Escherichia coli [23]) [mm] | inhibition zone (IZ) (Pseudomonas aeruginosa [24]) | inhibition zone (IZ) (Escherichia coli [25]) | inhibition zone (IZ) (Escherichia coli [26]) | also measured |
| --- | --- | --- | --- | --- | --- | --- | --- | --- | --- | --- | --- | --- | --- | --- | --- | --- | --- | --- | --- | --- | --- |
| 4.3 (≈ 18 µM) | CC/C=C/C1=C(CCC(=O)OC)C(=O)OC1=O | 33 | inactive | 19 | inactive | inactive | inactive | inactive | inactive | inactive | inactive | 23 | 26 | inactive | inactive | inactive | 28 | inactive | inactive | inactive | zone of inhibition at 3 µg/disc (Pseudomonas aeruginosa [2]; read-out: IZ): 9 mm; zone of inhibition at 10 µg/disc (Pseudomonas aeruginosa [5]; read-out: IZ): 11 mm; zone of inhibition at 100 µg/disc (Pseudomonas aeruginosa [6]; read-out: IZ): 20 mm; inhibition zone (IZ) (Escherichia coli [10]; dose 0.3 µg): inactive; zone of inhibition at 30 µg/disc (Pseudomonas aeruginosa [13]; read-out: IZ): 16 mm; inhibition zone (IZ) (Escherichia coli [22]): inactive; inhibition zone (IZ) (Escherichia coli [27]): inactive; inhibition zone (IZ) (Pseudomonas aeruginosa [28]): inactive; inhibition zone (IZ) (Escherichia coli [29]): inactive |
| > 10 | CC/C=C/C1=C(CCCOCc2ccccc2)C(=O)OC1=O |  |  |  |  |  |  |  |  |  |  |  |  |  |  |  |  |  |  |  |  |
| 5.9 (≈ 23.4 µM) | CC/C=C/C1=C(CCCOC(C)=O)C(=O)OC1=O |  |  |  |  |  |  |  |  |  |  |  |  |  |  |  |  |  |  |  |  |
| 9.49 (≈ 27.2 µM) | CC/C=C/C1=C(c2ccc(OCOC)c(OCOC)c2)C(=O)OC1=O | 27 | inactive | 14 | inactive | inactive | inactive | inactive | inactive | inactive | inactive | 16 | 20 | inactive | inactive | inactive | 23 | inactive | inactive | inactive | inhibition zone (IZ) (Pseudomonas aeruginosa [2]; dose 3.0 µg): inactive; inhibition zone (IZ) (Pseudomonas aeruginosa [5]; dose 10.0 µg): inactive; inhibition zone (IZ) (Pseudomonas aeruginosa [6]; dose 100.0 µg): inactive; zone of inhibition at 0.3 µg/disc (Escherichia coli [10]; read-out: IZ): 11 mm; inhibition zone (IZ) (Pseudomonas aeruginosa [13]; dose 30.0 µg): inactive; inhibition zone (IZ) (Escherichia coli [27]): inactive; inhibition zone (IZ) (Pseudomonas aeruginosa [28]): inactive |
